Source: article PMC8772704, “Quantification of Fosfomycin in Combination with Nine Antibiotics in Human Plasma and Cation-Adjusted Mueller-Hinton II Broth via LCMS” (Antibiotics, 2022)

Assays:
[1] = Autosampler stability at 4 °C of extracted antibiotic-spiked plasma/CAMHB samples; settings: for Mean accuracy (%), Table S8 / Mean accuracy (%), Table S10: CAMHB extracted samples; for Mean accuracy (%), Table S8 / Mean accuracy (%), Table S7: 7 h autosampler 4 °C; for Mean accuracy (%), Table S10 / Mean accuracy (%), Table S9: 15 h autosampler 4 °C; for Mean accuracy (%), Table S7 / Mean accuracy (%), Table S9: plasma extracted samples
Method: (§1) The stability of fosfomycin in combination with other antibiotics in plasma/CAMHB was evaluated under various operational conditions. Spiked plasma/CAMHB samples were evaluated at 7 h and 15 h in the autosampler at 4 °C. Long-term stability was evaluated up to 4 weeks of antibiotic-spiked plasma/CAMHB samples at LQC, MQC, and HQC concentrations stored at −30 °C and −80 °C.

[2] = Long-term storage stability of antibiotics in combination with fosfomycin spiked in plasma/CAMHB (−30 °C, −80 °C); type: physicochemical; settings: for Mean accuracy (%), Table S15 / Mean accuracy (%), Table S17 / Mean accuracy (%), Table S16 / Mean accuracy (%), Table S18: CAMHB; for Mean accuracy (%), Table S15 / Mean accuracy (%), Table S17 / Mean accuracy (%), Table S16 / Mean accuracy (%), Table S18 / Mean accuracy (%), Table S11 / Mean accuracy (%), Table S13 / Mean accuracy (%), Table S12 / Mean accuracy (%), Table S14: combination with fosfomycin; for Mean accuracy (%), Table S15 / Mean accuracy (%), Table S11: 2 weeks at -30 °C; for Mean accuracy (%), Table S17 / Mean accuracy (%), Table S13: 2 weeks at -80 °C; for Mean accuracy (%), Table S16 / Mean accuracy (%), Table S12: 4 weeks at -30 °C; for Mean accuracy (%), Table S18 / Mean accuracy (%), Table S14: 4 weeks at -80 °C; for Mean accuracy (%), Table S11 / Mean accuracy (%), Table S13 / Mean accuracy (%), Table S12 / Mean accuracy (%), Table S14: plasma
Method: as §1

[3] = 32-day stability of stock solutions stored at −80 °C; type: physicochemical; settings: stock solution stored at -80 °C; peak area Day 32 vs Day 1
Method: Stability of stock solutions
All stock solutions of antibiotics and their corresponding stable-isotope variants were measured prior to cold storage at -80 °C and tested at 32 days later.
Stability was determined by comparing the peak area of each drug between its Day 1 and Day 32 measurement. Acceptable criteria for stability was met if the […]

[4] = HQC: nominal mg/L CAZ 150, FEP 200, PIP 250, ATM 300, MEM 200, DOR 175, LVX 30, CEFT 250, TZB 87.5, TGC 20, AVI 30, FOF 1000
[5] = LQC: nominal 1 mg/L (levofloxacin, avibactam 0.5; fosfomycin 10)
[6] = MQC: nominal mg/L CAZ 75, FEP 100, PIP 150, ATM 150, MEM 100, DOR 87.5, LVX 15, CEFT 125, TZB 43.75, TGC 10, AVI 15, FOF 500

Row | Mean accuracy (%), Table S8 ([1]; HQC (nominal as E15)) [%] | Mean accuracy (%), Table S8 ([1]; LQC (nominal as E13)) [%] | Mean accuracy (%), Table S8 ([1]; MQC (nominal as E14)) [%] | Mean accuracy (%), Table S10 ([1]; HQC (nominal as E15)) [%] | Mean accuracy (%), Table S10 ([1]; LQC (nominal as E13)) [%] | Mean accuracy (%), Table S10 ([1]; MQC (nominal as E14)) [%] | Mean accuracy (%), Table S7 [1, 4] [%] | Mean accuracy (%), Table S7 [1, 5] [%] | Mean accuracy (%), Table S7 [1, 6] [%] | Mean accuracy (%), Table S9 ([1]; HQC (nominal as E15)) [%] | Mean accuracy (%), Table S9 ([1]; LQC (nominal as E13)) [%] | Mean accuracy (%), Table S9 ([1]; MQC (nominal as E14)) [%] | Mean accuracy (%), Table S15 ([2]; HQC (nominal as E15)) [%] | Mean accuracy (%), Table S15 ([2]; LQC (nominal as E13)) [%] | Mean accuracy (%), Table S15 ([2]; MQC (nominal as E14)) [%] | Mean accuracy (%), Table S17 ([2]; HQC (nominal as E15)) [%] | Mean accuracy (%), Table S17 ([2]; LQC (nominal as E13)) [%] | Mean accuracy (%), Table S17 ([2]; MQC (nominal as E14)) [%] | Mean accuracy (%), Table S16 ([2]; HQC (nominal as E15)) [%] | 32 Day Stability (%) [3] [%] | Compound | other results
1 | 106.4 | 108.8 | 104.2 | 107.5 | 108.3 | 104.9 | 96.2 | 105.4 | 100.7 | 95.6 | 103.4 | 99.3 | 90.4 | 93.7 | 89.1 | 95.3 | 101.2 | 95.4 | 80.6 | 102.63 | NC(=O)[C@@H]1CC[C@@H]2CN1C(=O)N2OS(=O)(=O)O [Avibactam, avibactam] | Stability verdict (within ±15% of nominal) ([2]; CAMHB samples stored at −30 °C, 4 weeks): instability; Mean accuracy (%), Table S16 ([2]; LQC (nominal as E13)): 82.3%; Mean accuracy (%), Table S16 ([2]; MQC (nominal as E14)): 80.6%; Mean accuracy (%), Table S18 ([2]; HQC (nominal as E15)): 98.6%; Mean accuracy (%), Table S18 ([2]; LQC (nominal as E13)): 103.0%; Mean accuracy (%), Table S18 ([2]; MQC (nominal as E14)): 98.2%; Mean accuracy (%), Table S11 ([2]; HQC (nominal as E15)): 93.9%; Mean accuracy (%), Table S11 ([2]; LQC (nominal as E13)): 100.6%; Mean accuracy (%), Table S11 ([2]; MQC (nominal as E14)): 99.4%; Mean accuracy (%), Table S13 ([2]; HQC (nominal as E15)): 95.2%; Mean accuracy (%), Table S13 ([2]; LQC (nominal as E13)): 105.1%; Mean accuracy (%), Table S13 ([2]; MQC (nominal as E14)): 100.4%; Mean accuracy (%), Table S12 ([2]; HQC (nominal as E15)): 87.3%; Mean accuracy (%), Table S12 ([2]; LQC (nominal as E13)): 100.2%; Mean accuracy (%), Table S12 ([2]; MQC (nominal as E14)): 92.6%; Mean accuracy (%), Table S14 ([2]; HQC (nominal as E15)): 92.9%; Mean accuracy (%), Table S14 ([2]; LQC (nominal as E13)): 101.0%; Mean accuracy (%), Table S14 ([2]; MQC (nominal as E14)): 94.5%
2 | 109.2 | 110.0 | 109.0 | 112.0 | 107.7 | 111.0 | 109.6 | 94.9 | 112.0 | 113.1 | 93.8 | 111.5 | 97.6 | 99.2 | 106.0 | 103.0 | 104.3 | 105.2 | 100.5 | 101.73 | CC(C)(O/N=C(\C(=O)N[C@@H]1C(=O)N2C(C(=O)[O-])=C(C[n+]3ccccc3)CS[C@H]12)c1csc(N)n1)C(=O)O [Ceftazidime, ceftazidime] | Mean accuracy (%), Table S16 ([2]; LQC (nominal as E13)): 105.0%; Mean accuracy (%), Table S16 ([2]; MQC (nominal as E14)): 100.4%; Mean accuracy (%), Table S18 ([2]; HQC (nominal as E15)): 103.8%; Mean accuracy (%), Table S18 ([2]; LQC (nominal as E13)): 103.5%; Mean accuracy (%), Table S18 ([2]; MQC (nominal as E14)): 106.4%; Mean accuracy (%), Table S11 ([2]; HQC (nominal as E15)): 99.5%; Mean accuracy (%), Table S11 ([2]; LQC (nominal as E13)): 97.8%; Mean accuracy (%), Table S11 ([2]; MQC (nominal as E14)): 105.0%; Mean accuracy (%), Table S13 ([2]; HQC (nominal as E15)): 99.4%; Mean accuracy (%), Table S13 ([2]; LQC (nominal as E13)): 102.6%; Mean accuracy (%), Table S13 ([2]; MQC (nominal as E14)): 101.0%; Mean accuracy (%), Table S12 ([2]; HQC (nominal as E15)): 100.3%; Mean accuracy (%), Table S12 ([2]; LQC (nominal as E13)): 100.3%; Mean accuracy (%), Table S12 ([2]; MQC (nominal as E14)): 105.0%; Mean accuracy (%), Table S14 ([2]; HQC (nominal as E15)): 107.7%; Mean accuracy (%), Table S14 ([2]; LQC (nominal as E13)): 98.8%; Mean accuracy (%), Table S14 ([2]; MQC (nominal as E14)): 103.0%
3 | 98.8 | 113.0 | 103.4 | 99.5 | 112.8 | 103.9 | 101.3 | 110.7 | 105.2 | 103.6 | 114.0 | 106.1 | – | – | – | – | – | – | – | 98.42 | C[C@H]1COc2c(N3CCN(C)CC3)c(F)cc3c(=O)c(C(=O)O)cn1c23 [Levofloxacin, levofloxacin] | –
